Assay results from a melting point compilation (Tetko et al.; mined from patent text by program, amines drawn as free bases though some values may be those of a salt).

melting point [°C] | Compound
180 to 181 | N#Cc1ccc(S(=O)(=O)N2CCN(C(=O)C3CCN(c4ccncn4)CC3)CC2)cc1
> 300 | Cc1[nH]c(=O)c2c(ccc3nc(Nc4c(Cl)cccc4Cl)[nH]c32)c1C
235 to 237 | CC(C)(O)Cn1c(CO)nc2c(N)nc3cccnc3c21
237 to 239 | CC(C)NC1=NS(=O)(=O)c2ccc(C(C)C)cc2N1
211 to 213 | O=C(O)c1ccc(-c2ccc3nnn(Cc4c(F)ccc(F)c4Cl)c3n2)cc1F
103 | CC(C)(C)OC(=O)N(Cc1csc2ccccc12)S(N)(=O)=O
50 to 52 | COC(=O)c1cc(F)c(F)c2c1NC(C)C2 (centres undefined)
74 to 75 | COc1ccc(C2(O)CCCCC2)cn1
98 to 100 | O=C(CCCc1cccnc1)N1CCC(CC(c2ccccc2)c2ccccc2)CC1
157 to 158 | CCOCc1nc2cnc3ccccc3c2n1CCCCC(N)=O
130 to 131 | CCOCc1nc2c(N)nc3ccccc3c2n1C[C@H]1COC(C)(C)O1
108 to 109 | COc1ccc(C2=NN(CCCCN)C(=O)[C@H]3CC=CC[C@@H]23)cc1OC (relative stereo)
69 to 71 | CC(C)(C)OC(=O)N1CCN(C(=O)CI)CC1
156 to 157 | CC(C)C[C@H]1C(=O)NC2CCC(=O)N21 (some centres undefined)
> 270 | COc1nc(-c2ccc(F)cc2)nc(-c2ccccn2)n1
248 to 249 | Nc1nc(N)nc(-c2ccc(C#Cc3ccccc3)cc2)n1
101 | CC(C)(C)OCCOc1cc(NC(=O)OC(C)(C)C)c(NC(=O)CC(=O)c2cccc(-n3ccnc3)c2)cc1-c1ccc(F)cc1
88 to 91 | COc1cc(CC2SC(N3CCCC3)=NC2=O)cc(-c2ccc(O)c(C3(C)CCCCC3)c2)c1 (centres undefined)

melting point [°C] | Compound
132 to 136 | CCn1c(C)c(C2(N(c3ccccc3)c3ccccc3)OC(=O)c3cccnc32)c2ccccc21 (centres undefined)
78.5 to 80 | O=S(=O)(c1ccccc1)N1CCCCC1CSc1ccc(Cl)cc1 (centres undefined)
162 to 163 | CCCCCOc1cc2c(cc1/C=C/C=C/C(C)=C/C(=O)O)C(C)(C)CCC2(C)C
234 to 235 | Cc1ccc2nc(C3(c4ccc(S(N)(=O)=O)cc4)C=C(C(F)(F)C(F)(F)F)NN3)sc2c1 (centres undefined)
187 to 189 | N#CCC(=O)c1nn(-c2ccccc2)c2c1COc1c(CN3CCOCC3)cc(F)cc1-2
84 | COc1cccc(N2CCN(CC(O)COC(c3ccccc3)c3cccc4ccccc34)CC2)c1 (centres undefined)
97 to 98 | CCCCCC(O)c1cccc(OCc2cccc(C(N)=O)c2)c1 (centres undefined)
98 | CC(C)N(C(=O)c1ccc(F)cc1)C1CCN(Cc2ccccc2)CC1
57 to 59 | O=c1occ(CSc2ccc(F)cc2)o1
> 260 | Nc1ccc(-c2cnc3[nH]c(=O)n(CC4CCOCC4)c3n2)cn1
114 to 118 | CN(C1=NC(=O)C(=O)S1)c1ccc(-c2ncn(-c3ccc(OC(F)(F)F)cc3)n2)cc1
118 to 120 | CCN1N=C(c2ccc([N+](=O)[O-])cc2)C(C)(C)C1=O
227 to 230 | CC(C)OC(=O)N1CCC(c2nc3cc(-c4ccc(C(N)=O)cn4)ccc3o2)CC1
73.7 | CCCc1cc(C)nc(-c2cccc(Oc3ccccc3Cl)n2)n1
88 to 90 | O=C(O)c1ccccc1CCc1cccc(Br)c1
98 to 100 | O=C(Nc1ccc(O)cc1)C(=O)N1CCC(Cc2ccc(F)cc2)CC1
177 to 180 | Cc1cc(=O)oc2nn(Cc3ccncc3)c(C)c12

Compound | melting point [°C]
Cc1sc(C2=NOC(c3cc(Cl)cc(Cl)c3)(C(F)(F)F)C2)cc1C(=O)NCC(=O)NCC#N (centres undefined) | 158 to 161
COC(=O)/C=C/c1ccc(CC(C)NCC(O)c2cccc(C(F)(F)F)c2)cc1 (centres undefined) | 80 to 83
CC1NCCc2ccccc21 (centres undefined) | 60
O=C(OC1c2ccccc2C(=O)N1c1ccc2ccc(Cl)nc2n1)N1CCN(C(=O)C2CCCCC2)CC1 (centres undefined) | 240
